# In PubChem BioAssay (NCI):
# “And” between values parts separate entries of the source, which are not always exact repeats. Equal values may be shown once.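 A five-concentration, 48-hour dose response in 96-well plates underlies each endpoint, interpolated linearly between surrounding concentrations. Here, GI50 denotes the concentration required for 50% inhibition of growth. TGI: concentration producing complete growth inhibition.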
# Key:
# Experiment in all cases: NCI tumour cell line growth inhibition, 48 h
# [1] = test system: 786-0 renal
# [2] = test system: OVCAR-4 ovarian
# [3] = test system: SK-OV-3 ovarian
# [4] = test system: SK-MEL-5 melanoma
# [5] = test system: A498 renal
# [6] = test system: K-562 leukemia
# [7] = test system: NCI-H522 lung
# [8] = test system: EKVX NSCLC
# [9] = test system: HOP-62 NSCLC
# [10] = test system: SW-620 colon
# [11] = test system: NCI-H23 lung
# [12] = test system: OVCAR-8 ovarian
# [13] = test system: UO-31 renal
# [14] = test system: HOP-18 NSCLC
# [15] = test system: LXFL 529 NSCLC
# [16] = test system: NCI-H460 lung
# [17] = test system: RXF-631 renal
# [18] = test system: SNB-19 CNS
# [19] = test system: KM12 colon
# [20] = test system: HCT-15 colon
# [21] = test system: SN12C renal
# [22] = test system: SF-539 CNS
# [23] = test system: RXF 393 renal
# [24] = test system: SNB-75 CNS
# [25] = test system: NCI-H226 lung
# [26] = test system: M14 melanoma
# [27] = test system: SR leukemia
# [28] = test system: SF-295 CNS
# [29] = test system: DLD-1 colon
# [30] = test system: M19-MEL melanoma
# [31] = test system: LOX IMVI melanoma
# [32] = test system: SNB-78 CNS
# [33] = test system: HOP-92 NSCLC
# [34] = test system: HT29 colon
# [35] = test system: KM20L2 colon
# [36] = test system: UACC-62 melanoma
# [37] = test system: ACHN renal
# [38] = test system: UACC-257 melanoma
# [39] = test system: DMS 114 small cell lung
# [40] = test system: CAKI-1 renal
# [41] = test system: U251 CNS
# [42] = test system: SK-MEL-2 melanoma
# [43] = test system: OVCAR-5 ovarian
# [44] = test system: CCRF-CEM leukemia
# [45] = test system: RPMI-8226 leukemia
# [46] = test system: IGROV1 ovarian
# [47] = test system: HL-60(TB) leukemia
# [48] = test system: HCC-2998 colon
# [49] = test system: MOLT-4 leukemia
# [50] = test system: TK-10 renal
# [51] = test system: SK-MEL-28 melanoma
# [52] = test system: HCT-116 colon
# [53] = test system: OVCAR-3 ovarian
# [54] = test system: A549 NSCLC
# [55] = test system: COLO 205 colon
# [56] = test system: DMS 273 small cell lung
# [57] = test system: MALME-3M melanoma
# [58] = test system: XF 498 CNS
# [59] = test system: P388/ADR leukemia
# [60] = test system: P388 leukemia
# [61] = test system: SF-268 CNS
compound,measurement,setting,value
COc1cccc2c1C(=O)c1c(O)c3c(c(O)c1C2=O)C[C@@](O)(C(=O)CO)CC3OC1CC(NCCCCC(OC(C)=O)OC(C)=O)C(O)C(C)O1 (stereo not given in full),TGI,[1],> 1 µM
same,TGI,[2],0.00449 µM and 0.00985 µM
same,GI50,[3],0.00567 µM
same,TGI,[3],> 1 µM
same,GI50,[4],0.00152 µM
same,TGI,[4],0.00341 µM
same,TGI,[5],0.0211 µM
same,GI50,[6],0.000522 µM
same,TGI,[6],0.00466 µM
same,GI50,[7],0.00125 µM
same,TGI,[7],0.00344 µM and 0.00513 µM
same,GI50,[8],0.00368 µM
same,TGI,[8],0.0143 µM
same,GI50,[9],0.00248 µM
same,GI50,[10],0.00175 µM
same,TGI,[10],> 1 µM
same,GI50,[11],0.000808 µM
same,TGI,[11],0.00237 µM
same,GI50,[12],0.00179 µM
same,TGI,[12],0.0614 µM
same,TGI,[13],0.0043 µM
same,GI50,[14],0.0078 µM
same,TGI,[14],0.00926 µM and 0.0807 µM
same,GI50,[15],0.00263 µM
same,TGI,[16],0.319 µM
same,TGI,[17],0.00803 µM
same,TGI,[18],> 1 µM
same,TGI,[19],0.00774 µM and 0.022 µM
same,TGI,[20],> 1 µM
same,GI50,[21],0.000935 µM
same,TGI,[21],> 1 µM
same,GI50,[22],0.00296 µM
same,TGI,[22],0.00421 µM and 0.0374 µM
same,GI50,[23],0.00269 µM
same,TGI,[23],0.00356 µM and 0.00642 µM
same,GI50,[24],0.000927 µM
same,TGI,[24],0.00432 µM and 0.00344 µM
same,TGI,[25],0.00568 µM
same,GI50,[26],0.0011 µM
same,TGI,[26],0.00458 µM and 0.00549 µM
same,TGI,[27],0.0027 µM
same,GI50,[28],0.00227 µM
same,TGI,[28],0.0335 µM
same,GI50,[29],0.00247 µM
same,TGI,[29],0.245 µM
same,GI50,[30],0.00156 µM
same,TGI,[30],0.00334 µM
same,GI50,[31],0.000488 µM
same,TGI,[31],0.00829 µM and 0.0302 µM
same,TGI,[32],0.00804 µM
same,GI50,[33],0.00286 µM
same,TGI,[33],0.00682 µM and 0.0079 µM
same,GI50,[34],0.00103 µM
same,TGI,[34],0.0125 µM
same,GI50,[35],0.000858 µM
same,TGI,[35],0.00875 µM
same,GI50,[36],0.000655 µM
same,TGI,[36],0.00374 µM and 0.00228 µM
same,TGI,[37],0.0057 µM
same,GI50,[38],0.00286 µM
same,TGI,[38],0.00798 µM
same,GI50,[39],0.00083 µM
same,TGI,[39],0.00291 µM
same,TGI,[40],0.00812 µM
same,GI50,[41],0.00266 µM
same,GI50,[42],0.00171 µM
same,TGI,[42],0.00435 µM and 0.00331 µM
same,TGI,[43],> 1 µM
same,GI50,[44],0.000538 µM
same,TGI,[44],0.0118 µM
same,GI50,[45],0.000528 µM
same,TGI,[45],0.00313 µM
same,GI50,[46],0.00355 µM
same,TGI,[46],> 1 µM
same,TGI,[47],0.00428 µM
same,TGI,[48],0.00495 µM and 0.00577 µM
same,GI50,[49],0.000378 µM
same,TGI,[49],0.00909 µM and 0.00236 µM
same,TGI,[50],> 1 µM
CN(C)CC(C)(C)C(=O)/C=C/c1ccccc1,TGI,[1],29.9 µM
same,TGI,[2],31.6 µM
same,TGI,[51],31 µM
same,TGI,[52],27.4 µM
same,TGI,[4],30.1 µM
same,TGI,[5],39.5 µM
same,TGI,[6],33.7 µM
same,TGI,[7],23 µM
same,TGI,[8],38.3 µM
same,TGI,[9],96.3 µM
same,TGI,[10],31.1 µM
same,TGI,[11],45.5 µM
same,TGI,[12],> 100 µM
same,TGI,[13],23 µM
same,TGI,[14],49.8 µM
same,TGI,[15],24.9 µM
same,TGI,[16],74.6 µM
same,TGI,[18],31.4 µM
same,TGI,[19],28.5 µM
same,TGI,[20],26.9 µM
same,TGI,[53],40.5 µM
same,TGI,[21],33.7 µM
same,TGI,[22],32.3 µM
same,TGI,[23],24.5 µM
same,TGI,[24],37.7 µM
same,TGI,[25],29.3 µM
same,TGI,[54],> 100 µM
same,TGI,[26],26.7 µM
same,TGI,[28],33.2 µM
same,TGI,[29],74.3 µM
same,TGI,[30],32.2 µM
same,TGI,[31],25.6 µM
same,TGI,[32],88.6 µM
same,TGI,[33],24.5 µM
same,TGI,[34],33.9 µM
same,TGI,[35],28.8 µM
same,TGI,[55],26.2 µM
same,TGI,[36],26.5 µM
same,TGI,[37],33.3 µM
same,TGI,[38],27.2 µM
same,TGI,[56],47.7 µM
same,TGI,[39],29.1 µM
same,TGI,[57],24.1 µM
same,TGI,[40],40.3 µM
same,TGI,[41],30.5 µM
same,TGI,[58],23.8 µM
same,TGI,[44],23.2 µM
same,TGI,[45],56.6 µM
same,TGI,[46],59.7 µM
same,TGI,[47],26.7 µM
same,TGI,[49],60.4 µM
same,TGI,[50],32.1 µM
Nc1ncn(C2OC(CO)C(O)C2O)c(=O)n1 (stereo not given),GI50,[59],0.611 µM
same,TGI,[59],41.1 µM and 11.6 µM
same,TGI,[8],215 µM and > 72.8 µM and 26.5 µM
same,TGI,[14],250 µM and 125 µM
same,TGI,[30],> 250 µM and 28.4 µM
same,GI50,[39],9.47 µM and 1.17 µM
same,TGI,[58],61.2 µM and 11.4 µM
same,GI50,[60],0.55 µM
same,TGI,[60],36.7 µM and 7.61 µM
CC(=O)OC1CC2C(C)(C)C(=O)C=C[C@]2(C)C2CCC3(C)C(=CCC3[C@H](CO)C[C@H](O)C(=O)C(C)(C)O)[C@]12C (stereo not given in full),TGI,[1],34.1 µM
same,TGI,[2],> 100 µM
same,TGI,[3],48.2 µM
same,TGI,[51],36.5 µM
same,TGI,[52],> 100 µM
same,TGI,[4],42 µM
same,TGI,[5],30.7 µM
same,TGI,[6],> 100 µM
same,TGI,[7],52.3 µM
same,TGI,[8],38.5 µM
same,TGI,[10],41 µM
same,TGI,[12],33.1 µM
same,TGI,[13],39.3 µM
same,TGI,[14],> 100 µM
same,TGI,[15],> 100 µM
same,TGI,[16],40.1 µM
same,TGI,[17],> 100 µM
same,TGI,[18],> 100 µM
same,TGI,[19],39 µM
same,TGI,[20],40.4 µM
same,TGI,[53],35.4 µM
same,TGI,[21],75.9 µM
same,TGI,[22],35.1 µM
same,TGI,[23],31.3 µM
same,TGI,[24],91.6 µM
same,TGI,[25],42.2 µM
same,TGI,[54],79.3 µM
same,TGI,[26],45.6 µM
same,TGI,[27],86.2 µM
same,TGI,[28],27.7 µM
same,TGI,[29],30.3 µM
same,TGI,[61],82.2 µM
same,TGI,[30],97.3 µM
same,TGI,[31],33.6 µM
same,TGI,[32],> 100 µM
same,TGI,[34],28.1 µM
same,TGI,[35],28 µM
same,TGI,[55],> 100 µM
same,TGI,[36],31.6 µM
same,TGI,[37],50 µM
same,TGI,[38],30.8 µM
same,TGI,[56],> 100 µM
same,TGI,[39],> 100 µM
same,TGI,[57],33.3 µM
same,TGI,[40],55.3 µM
same,TGI,[41],31.5 µM
same,TGI,[42],51.3 µM
same,TGI,[43],83.3 µM
same,TGI,[44],66.3 µM
same,TGI,[45],64.2 µM
same,TGI,[46],49.1 µM
same,TGI,[47],43.8 µM
same,TGI,[48],34.1 µM
same,TGI,[49],89.5 µM
same,TGI,[50],65.9 µM
